Each structure is given as a SMILES string.

The test system of one assay is Eurasian watermilfoil. As to the kind of experiment: Eurasian watermilfoil aquaria trial, biomass 4 weeks after treatment. Particulars: 8 hr exposure.
The subject of assay [1] is cyanophyta (blue-green algae). As to the kind of experiment: Toxicity experiment on algae in Morrison Lake site water (chlorophyll-a, visual observations, total algae cell density). It is filed as cell-based. As to the method: (§1) Five formulations were prepared and tested. The formulations included various pesticides used singularly, a protein surfactant blend used singularly, and pesticides used in combination with a protein surfactant blend. The tests were conducted on cyanophyta (blue-green algae) sampled from Morrison Lake located in Ionia County, Mich. The properties that were tested included the chlorophyll-a concentrations, cell densities, visual observations, and partial application label rates of chelated elemental copper and sodium carbonate peroxyhydrate. The initial chlorophyll-a concentration was determined to be 27.4 μg chlorophyll a/L. The initial water characteristics are listed in table 1. […]
(§2) The formulation tested was sodium carbonate peroxyhydrate and the exposure period was 10 days.
(§3) The algae were exposed to three concentrations in 500 mL flasks. The experiments were initiated using 300 mL of site water. The toxicity experiment was initiated by exposing the algae to 7.4, 22.1, and 36.9 mg sodium carbonate peroxyhydrate/L. Three replicates of each exposure concentration, along with three replicates of untreated controls, were tested. […]

For a further assay, the system named is Anabaena sp. As to the kind of experiment: Toxicity experiment on algae in Morrison Lake site water, cell density of Anabaena sp. The class given is cell-based. As to the method: as §1, §2, §3
Another assay deals with Aphanizomenon sp. As to the kind of experiment: Toxicity experiment on algae in Morrison Lake site water, cell density of Aphanizomenon sp. It is filed as cell-based. As to the method:
as §1, §2, §3

Take `CCOC(=O)C(Cl)Cc1cc(-n2nc(C)n(C(F)F)c2=O)c(F)cc1Cl` (stereo not shown) [Carfentrazone-ethyl, Ethyl 2-chloro-3-[2-chloro-4-fluoro-5-[4-(difluoromethyl)-4,5-dihydro-3-methyl-5-oxo-1H-1,2,4-trizol-1-yl)phenyl]propanoate]: the “regrowth of Eurasian watermilfoil” value in the assay on Eurasian watermilfoil (0.1 mg ai/L, 2 WAT) is “regrowth was noted”. Further, in the assay on Eurasian watermilfoil (0.1 mg ai/L, initial), the “injury to Eurasian watermilfoil” value is “initial injury observed”. The “reducing Eurasian watermilfoil biomass” value with Eurasian watermilfoil (0.2 mg ai/L, 4 WAT) is “effective at reducing Eurasian watermilfoil biomass”.
For `O=C([O-])[O-].O=C([O-])[O-].OO.OO.OO.[Na+].[Na+].[Na+].[Na+]` [Sodium Carbonate Peroxyhydrate, sodium carbonate peroxyhydrate], in assay [1] (7.4 mg/L (20 lbs/acre-ft)), the “Avg. Day 4 Chlorophyll-a” value came out at 22.5 µg/L and the “Avg. Day 10 Chlorophyll-a” value was determined as 8.6 µg/L. Besides, in assay [1] (22.1 mg/L (60 lbs/acre-ft)), the “Avg. Day 4 Chlorophyll-a” value amounted to 12.5 µg/L; the “Avg. Day 10 Cell Density, Total algae” value is <1 × 10^3 cells of/mL; the “Avg. Day 10 Chlorophyll-a” value is 2.7 µg/L. Moreover, in assay [1] (36.9 mg/L (100 lbs/acre-ft)), the “Avg. Day 4 Cell Density, Total algae” value is on record as <1 × 10^3 cells/mL; the “Avg. Day 4 Chlorophyll-a” value amounted to 7.9 µg/L; the “Avg. Day 10 Cell Density, Total algae” value is <1 × 10^3 cells of/mL; the “Avg. Day 10 Chlorophyll-a” value is below 2 µg/L. The “concentration of sodium carbonate peroxyhydrate needed for algae control” value in assay [1] (sodium carbonate peroxyhydrate applied alone) came out at 22.7 ppm. For the same compound, in the assay on Anabaena sp. (7.4 mg/L (20 lbs/acre-ft)), the “Avg. Day 4 Cell Density, Anabaena sp.” value was 8.9 × 10^4 cells/mL and the “Avg. Day 10 Cell Density, Anabaena sp.” value is recorded as 4.1 × 10^4 cells of/mL. Further, the “Avg. Day 4 Cell Density, Anabaena sp.” value in the assay with Anabaena sp. (22.1 mg/L (60 lbs/acre-ft)) was 1.8 × 10^4 cells/mL. In the assay on Aphanizomenon sp. (7.4 mg/L (20 lbs/acre-ft)), the “Avg. Day 4 Cell Density, Aphanizomenon sp.” value is given as 1.1 × 10^3 cells/mL and the “Avg. Day 10 Cell Density, Aphanizomenon sp.” value is 2.8 × 10^4 cells of/mL. Besides, the “Avg. Day 4 Cell Density, Aphanizomenon sp.” value in the assay with Aphanizomenon sp. (22.1 mg/L (60 lbs/acre-ft)) is on record as 6.5 × 10^4 cells/mL.

For the origin of these results see patent US10010076B2, “Plant control composition containing peptide enhancing agent” (Arch Chemicals, Inc., priority 2013, dated 2018).
